Source: US4528027A, “Acylthio-substituted triazines” (Shell Oil Company, priority 1984, dated 1985)

Assay: Approximate solubility in xylene at room temperature
Assay type: physicochemical
Conditions: not given

Structure (SMILES)	Approximate Solubility at Room Temperature, Grams of Compound per 100 Grams of Xylene
CCN(SC(=O)OC)c1nc(Cl)nc(NC(C)C)n1 [Compound 5]	> 150 Grams of Compound per 100 Gram
CCN(SC(=O)OC)c1nc(Cl)nc(NC(C)(C)C#N)n1 [Compound 1, 2-chloro-4-(1-cyano-1-methylethylamino)-6-(N-ethyl-N-((methoxycarbonyl)thio))-1,3,5-triazine]	26 Grams of Compound per 100 Gram

Results, then the compound that gave them:

Approximate Solubility at Room Temperature, Grams of Compound per 100 Grams of Xylene	Structure (SMILES)
> 150 Grams of Compound per 100 Gram	CCN(SC(=O)OC)c1nc(NC(C)C)nc(SC)n1 [Compound 15, 2-(methylthio)-4-(1-methylethylamino)-6-(N-ethyl-N-((methoxycarbonyl)thio))-1,3,5-triazine]
> 150 Grams of Compound per 100 Gram	CCN(SC(=O)OC)c1nc(NC(C)C)nc(OC)n1 [Compound 14, 2-methoxy-4-(1-methylethylamino)-6-(N-ethyl-N-((methoxycarbonyl)thio))-1,3,5-triazine]

Same assay, conditions: xylene, room temperature

Structure (SMILES)	Approximate Solubility at Room Temperature, Grams of Compound per 100 Grams of Xylene
CCNc1nc(NC(C)C)nc(OC)n1 [Compound 14A, 2-methoxy-4-(1-methylethylamino)-6-ethylamino-1,3,5-triazine, reference compound]	25 Grams of Compound per 100 Gram
CCNc1nc(Cl)nc(NC(C)(C)C#N)n1 [Compound 1B, 2-chloro-4-(1-cyano-1-methylethylamino)-6-ethylamino-1,3,5-triazine, reference compound]	0.3 Grams of Compound per 100 Gram
